Series [1] relates to ERK. As to the kind of experiment: ERK assay for cell growth-promoting activity (TGR assay), Swiss 3T3 fibroblast cells. It is filed as cell-based. The note with it: tammar LAM corresponding to the bovine sample of Table 24. As for the experimental part: (§1) Plasmids containing Tammar wallaby LAMs were directionally cloned into the expression vector pCMV Sport 6.0, and then transfected into the human kidney cell line HK293. A total of 1 μg of LAM-containing plasmid DNA and 10 ng of pEGFP-C1 plasmid was introduced into 70% confluent HK293 cells in 2 cm^2 wells containing 500 ul of opti-MEM-1 media. Transfection success was assessed by observing green fluorescence of cells by fluorescent microscopy. After 48 hours conditioned media containing the secreted polypeptide was collected and frozen at −20° C. The media containing the secreted polypeptides was then used directly in a variety of bioactivity assays. For the assays described below, samples of secreted polypeptides were aliquoted into individual wells of 96 or 384 well plates and stored, prior to assaying, either frozen or lyophilized.
(§2) A negative control created by transfection with an insertless vector was used in all assays. For the assays described in Examples 4A, 4B, 4C and 4D results for samples were in the form of relative fluorescence units (RFU) as described herein. […] In some cases, RFU less than two standard deviations from the mean were considered significant if the LAM sample in question produced a positive result in another assay.
Extracellular signal-regulated protein kinase (ERK) is a common and central signal transduction pathway component of tyrosine kinase receptor. Activation of ERK is indicative of an extracellular proliferation signal and provides an index of a growth promoting agent.
Swiss 3T3 fibroblast cells were plated into 384 well plates, grown to confluence and starved overnight with serum-free medium. Cells were then treated for 10 minutes with a LAM polypeptide prepared as described above. Cells were then lysed and assayed for activation of ERK. Samples were assessed for changes in the activity of ERK.
The results of ERK activation assays are shown in Table 6 as relative fluorescence units (RFU). […] These same samples are equated with LAM numbers as represented in Table 7. […]

For series [2], the system named is AGS cells. Put plainly: Cell growth using bovine cathelicidin variants in AGS cells (SRB assay). The note with it: 72 hours; for cell growth Replicate 3: -ve control 0.233; for cell growth Replicate 1: -ve control 0.247; for cell growth Replicate 4: -ve control 0.265; for cell growth Replicate 2: -ve control 0.316; for cell growth Mean: -ve control mean 0.265. It is filed as cell-based, human. On the set-up: unit not given here. As for the experimental part: A cellular growth assay was performed using seven bovine cathelicidin (CATHL) variants, namely CATHL1, 4, and 6 which are known in the art (the relevant sequences can be obtained using the following hyperlink: http://www.ncbi.nlm.nih.gov/entrez/query.fcqi?db=unigene&cmd=search&term=cathelicidin) and bovine Cathelicidins 8, 9, 10 and 11 (being LAMs 32.8, 32.9, 32.10 and 32.11, respectively) as identified herein and which are derived from LAM 32. The bovine cathelicidin associated LAMs were derived by sequence comparison to the tammar polynucleotide sequence of LAM 32.
The growth rate of AGS cells was assessed in the presence of the cathelicidins. Equal numbers of human gastric epithelial AGS cells were cultured in either control media or media conditioned with bovine cathelicidins for 72 hours in a 1:10 dilution of serum and antibiotic-free Optimem. Cells were then fixed and a Sulforhodamine B (SRB) colorimetric assay was undertaken as described in Journal of Immunological Methods 208: 151-158, K. T. Papazisis, G. D. Geromichalos, K. A. Dimitriadis, A. H. Kortsaris (1997), ‘Optimization of the sulforhodamine B colorimetric assay’.
Briefly, cells were fixed directly by incubation with 10% trichloroacetic acid for 1 hour at 4° C., washed with water, air-dried overnight and then stained with 0.4% w/v sulforhodamine B, 1% acetic acid solution for 10 minutes at room temperature. Cell were again washed with 1% acetic acid and air-dried, then counted in triplicate.

Series [3] has as its system chicks. Put plainly: Chick growth assay (in ovo injection, weight at hatching). The note with it: for Chick weight: bovine polypeptides in conditioned media, 1 ml in ovo on day 16 of incubation, weighed on day of hatching, Saline 51.0. The series is classed as in vivo. The method, then:
FIG. 5. Chick growth assay by measuring weight. 10 LAMs (being bovine homologues having homology to specific Tammar ESTs), 3 known bovine cathelicidins, and four bovine cathelicidin variants were tested. Conditioned media containing a LAM polypeptides or bovine cathelicidins or variants thereof was diluted in a total of 1 ml of normal saline. Eggs on day 16 of incubation were injected with 1 ml of the media containing the into the broad end of the egg. Chicks were weighed on day of hatching. The overall condition of the chick was assessed including the possible presence of stumpy legs and/or loss of down feathers.
Conditioned media containing LAM polypeptides or bovine cathelicidins or variants thereof were diluted in a total of 1 ml of normal saline. Eggs on day 16 of incubation were injected in ovo with 1 ml of LAM polypeptides or bovine cathelicidins or variants thereof into the broad end of the egg. Chicks were weighed on day of hatching. Controls included saline only, or saline and 10 mg/ml of a peptide as a random peptide control.
As set out in Table 23, the left column indicates the polypeptide used in the assay while the right column contains chick weight in grams as a measurement of chick growth. Bolded numbers represent a chick(s) larger than the controls and more than 2 standard deviations from the mean. In addition, bolded numbers represent chicks that have been killed. The mean represents the weight of all the chicks tested within this experiment.

Series [4] deals with HSC-2 oral epithelial cells. Put plainly: Cell viability assay to assess anti- and pro-apoptotic effects (vinblastine, Alamar Blue). The conditions noted are these: HSC-2 cells. The series is classed as cell-based. As for the experimental part:
as §1, §2
Vinblastine is a commonly used cytotoxic agent used in chemotherapy. It induces apoptosis in a wide variety of cell types. Caspase activation and DNA fragmentation are hallmarks of the apoptotic process.
Aliquots of the secreted polypeptide samples in 96 well plates were pipetted onto HSC-2 oral epithelial cells and the cells left for 24 hours. After this time, the cells were treated with vinblastine to induce apoptosis. After a further 48 hours, the cells were analyzed for survival using a vital dye, namely Alamar Blue (resazurin) fluorescent dye (TGR BioSciences Pty Ltd, Adelaide, Australia). This dye method is a TGR proprietary assay technology and as such would be known by a person skilled in the art. Internal controls for induction of cell death via apoptosis as well as assay performance were also included on each plate. Cell survival measurements with this technique reflected the degree of apoptosis.
For orientation: Alamar Blue is a resazurin reagent that responds to reducing activity.

For series [5], the system named is p38 MAPK. Put plainly: p38 MAPK assay of inflammatory activity in the presence of LPS, RAW macrophage cells. It is filed as cell-based. As for the experimental part: as §1
A negative control created by transfection with an insertless vector was used in all assays. For the assays described in Examples 4A, 4B, 4C and 4D results for samples were in the form of relative fluorescence units (RFU) as described herein. […]
Activation of p38 MAPK was assessed in RAW macrophage cells in the presence of lipopolysaccharide (LPS), which is a potent stimulator of the immune system and which mimics bacterial infection, thereby providing a model system for inflammation. […]

On to “CATHL1: bovine cathelicidin 1, known in the art (RLCRIVVIRVCR; UniProt P22226 144-155, looked up) [reference compound]”, for which, in series [1], the “tammar ERK activity” value is listed as “yes”. Also, in series [2], the “cell growth Replicate 3” value is 0.303, the “cell growth Replicate 1” value was 0.412, the “cell growth Replicate 4” value came out at 0.378 and the “cell growth Replicate 2” value is on record as 0.419. The “cell growth Mean” value in series [2] stood at 0.378. In addition, the Chick weight in series [3] is recorded as 52.8 grams.
On to “CATHL2: bovine cathelicidin listed under LAM32, sample number 15 (RFRPPIRRPPIRPPFYPPFRPPIRPPIFPPIRPPFRPPLGPFP; UniProt P19660 131-173, looked up)”, for which, in series [1], the “tammar ERK activity” value is recorded as “yes”.
For “CATHL5: bovine cathelicidin 5 (known sequence) (GGLRSLGRKILRAWKKYGPIIVPIIRIG; UniProt P54229 132-159, looked up) [reference compound]”, the “tammar ERK activity” value in series [1] is recorded as “yes”. Further, in series [2], the “cell growth Replicate 3” value was 0.382, the “cell growth Replicate 1” value is recorded as 0.423, the “cell growth Replicate 4” value is recorded as 0.415 and the “cell growth Replicate 2” value was found to be 0.441. Also, the “cell growth Mean” value in series [2] was 0.415. In addition, in series [3], the Chick weight entry is “Killed”. Besides, in series [3] (in ovo injection on day 16 of incubation), the “death / overall condition of chick” value is recorded as “caused death of chicks”.

B1: LAM 17: FGL2: Fibrinogen like-1 (Table 24); tammar polypeptide SEQ ID NO 47, bovine SEQ ID NO 107 (protein, UniProt Q29RY7 16-441, looked up)
Fibroleukin: TYGFLVVANNETEEIKDEAAQNACRVRLESRGRCEEEGECPYQVNLPPLTIQLPKQFSRIEEVFKEVQNLKEIVNSLKKTCQDCKLQADDSRDPGRNGLLLPGTGAPGETGDNRVRELEGEVNKLSSDLKNAKEEIDVLQGRLEKLNLVNMNNIEQYVDSKVANLTFVVNSLDGKCSSKCPRQEQIQSLPVQQHLIYKDCSEYYTIGKRSSELYRVTPEPRNSSFEVFCDMETMAGGWTVLQARVDGSTNFTRTWQDYKVGFGNLRREFWLGNDKIHLLTKSKDMILRIDLEDFNGIKLYALYDHFYVANEFLKYRLHIGNYNGTAGDALRFSKHYNHDLKFFTTPDRDNDRYPSGNCGLYYSSGWWFDACLSANLNGKYYHQKYRGVRNGIFWGTWPGISEAQPGGYKSSFKEVKMMIRPKHFKP
As to B1, the “RFU (pro-apoptotic activity)” value in series [4] (Alamar Blue, Mean RFU 1758076, SD RFU 108156) is 1478245 RFU. Further, the “anti- or pro-apoptotic activity (RFU versus mean)” value in series [4] (text summary of Tables 8-11) is given as “pro-apoptotic activity”. Further, the “anti-inflammatory activity (RFU significantly below the mean)” value in series [5] (RAW macrophage cells with LPS, text summary of Tables 14 and 15) was “anti-inflammatory activity”. The “RFU (p38 inhibition, anti-inflammatory activity)” value in series [5] (RAW macrophage cells, 30 minutes sample then LPS 30 minutes, Mean RFU 35980, SD RFU 4227, negative control 45833 RFU) is recorded as 20814 RFU. Further, the Chick weight in series [3] was 49.2 grams.

Values taken from patent US20110201105A1, “LACTATION-ASSOCIATED POLYPEPTIDES” (Dairy Australia Limited, priority 2007, published 2011).
